ChEMBL document CHEMBL1126477 (Bioorg Med Chem Lett, 1993)

Assays:
Angiotensin II receptor = target: T1, Angiotensin II receptor (Rattus norvegicus, UniProt P29089+P25095+P35351); assay: Angiotensin II receptor antagonist activity was determined by 50% inhibition of specific binding of [3H]angiotensin II (2 nM) to rat adrenal cortical microsomes
T1 sequence (P29089 whole entry): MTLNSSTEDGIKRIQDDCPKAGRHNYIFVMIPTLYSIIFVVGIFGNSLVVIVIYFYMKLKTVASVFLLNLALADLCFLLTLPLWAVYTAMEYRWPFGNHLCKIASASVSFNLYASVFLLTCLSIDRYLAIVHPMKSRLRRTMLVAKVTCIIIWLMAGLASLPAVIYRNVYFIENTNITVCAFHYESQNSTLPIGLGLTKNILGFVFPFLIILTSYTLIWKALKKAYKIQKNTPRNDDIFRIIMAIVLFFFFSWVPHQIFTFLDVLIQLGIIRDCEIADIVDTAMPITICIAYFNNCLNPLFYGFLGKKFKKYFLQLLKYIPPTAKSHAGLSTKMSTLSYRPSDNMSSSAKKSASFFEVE
T1 sequence (P25095 whole entry): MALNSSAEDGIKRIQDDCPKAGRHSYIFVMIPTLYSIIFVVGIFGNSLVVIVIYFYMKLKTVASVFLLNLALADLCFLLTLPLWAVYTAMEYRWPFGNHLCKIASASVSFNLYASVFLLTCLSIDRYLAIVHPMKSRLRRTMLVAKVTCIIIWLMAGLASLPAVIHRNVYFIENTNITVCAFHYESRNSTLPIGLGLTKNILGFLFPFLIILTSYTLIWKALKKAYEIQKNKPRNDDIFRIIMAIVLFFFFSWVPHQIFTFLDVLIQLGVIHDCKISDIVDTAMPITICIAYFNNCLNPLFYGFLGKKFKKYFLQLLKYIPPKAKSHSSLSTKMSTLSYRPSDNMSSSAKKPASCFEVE
T1 sequence (P35351 whole entry): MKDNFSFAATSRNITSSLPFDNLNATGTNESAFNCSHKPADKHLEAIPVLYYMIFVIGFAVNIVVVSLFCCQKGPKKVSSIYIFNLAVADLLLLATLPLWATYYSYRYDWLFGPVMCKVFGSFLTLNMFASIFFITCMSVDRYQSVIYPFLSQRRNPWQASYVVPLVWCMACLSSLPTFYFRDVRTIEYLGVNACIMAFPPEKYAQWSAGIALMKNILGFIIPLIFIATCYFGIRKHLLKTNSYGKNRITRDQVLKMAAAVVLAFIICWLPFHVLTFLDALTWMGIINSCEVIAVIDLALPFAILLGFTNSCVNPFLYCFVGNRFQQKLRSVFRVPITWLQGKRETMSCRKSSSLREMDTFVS

Rattus norvegicus [1] = assay: The compound was tested for antihypertensive activity in renal hypertensive rat after intravenous administration; assay type: functional
Rattus norvegicus [2] = assay: The compound was tested for antihypertensive activity in renal hypertensive rat after oral administration; assay type: functional

SMILES	IC50 (Angiotensin II receptor) [nM]	ED30 (Rattus norvegicus [1]) [mg/kg]	ED30 (Rattus norvegicus [2]) [mg/kg]
CCCc1nc(C(F)(F)C(F)(F)C(F)(F)F)c(CO)n1Cc1ccc(-c2ccccc2-c2nn[nH]n2)cc1	13		
CCCc1nc(C(F)(F)C(F)(F)F)c(CO)n1Cc1ccc(-c2ccccc2C(=O)O)cc1	48		
CCCc1nc(C(F)(F)C(F)(F)F)c(CO)n1Cc1ccc(-c2ccccc2-c2nn[nH]n2)cc1	1.2		
CCCc1nc(C(F)(F)C(F)(F)C(F)(F)C(F)(F)C(F)(F)C(F)(F)F)c(CO)n1Cc1ccc(-c2ccccc2C(=O)O)cc1	2500		
CCCc1nc(C(F)(F)F)c(CO)n1Cc1ccc(-c2ccccc2-c2nn[nH]n2)cc1	6.4		
CCCc1nc(C(F)(F)C(F)(F)C(F)(F)F)c(C(=O)O)n1Cc1ccc(-c2ccccc2-c2nn[nH]n2)cc1		0.62	
CCCc1nc(C(F)(F)F)c(CO)n1Cc1ccc(-c2ccccc2C(=O)O)cc1	130		
CCCc1nc(C(F)(F)C(F)(F)C(F)(F)F)c(CO)n1Cc1ccc(-c2ccccc2C(=O)O)cc1	74		
CCCc1nc(C(F)(F)C(F)(F)C(F)(F)C(F)(F)F)c(CO)n1Cc1ccc(-c2ccccc2C(=O)O)cc1	290		
CCCc1nc(C(F)(F)F)c(C(=O)O)n1Cc1ccc(-c2ccccc2-c2nn[nH]n2)cc1		0.01	0.79
CCCc1nc(C(F)(F)C(F)(F)F)c(C(=O)O)n1Cc1ccc(-c2ccccc2-c2nn[nH]n2)cc1		0.042	0.21
CCCCc1nc(Cl)c(C(=O)O)n1Cc1ccc(-c2ccccc2-c2nn[nH]n2)cc1 [CARBOXYLIC ACID METABOLITE]		0.038	0.66
